Measured values published in patent US11679123B2, “N-acylated hyaluronic acid for hyperuricemia and gouty arthritis” (Queen's University at Kingston, priority 2018, dated 2023).

What was measured:
[1] = tested on: factors related to oxidative stress; experiment: Factors related to oxidative stress in serum and liver of hyperuricemia mice (ELISA); format: in vivo, Balb/C mice
Description: (§1) Due to the presence of uricase in mice, a hyperuricemic mouse model was established by using uricase inhibitor and large amounts of purine. Mice were randomly divided into five groups (n=10), including the control group (NC), model group (MC), 20 mg/kg of AL (Shimao Tianjie Pharmaceutical Co. Ltd, Jiangsu, China) group, 10 μg BHA group (10BHA) and 50 μg BHA group (50BHA). Oral administration of AL and intraperitoneal injection of BHA were administered according to the required dose, and all mice were gavage fed 20 g/kg yeast extract powder 12 h prior to the administration of AL and BHA except for NC mice for 8 days. From the 6th to 8th day, 1-h prior to AL and BHA administration, 300 mg/kg of OXO (Sigma, USA) was intraperitoneally injected to all of the mice except those in the control group. At 1 h after the final drug administration, blood was sampled from caudal veins of the mice, serum was separated and their livers were quickly collected (FIG. 3A, E). All samples were stored at −80° C. until assay measurements were performed.
(§2) The levels of reactive oxygen species (ROS, 43355), malondialdehyde (MDA, 43124) glutathione peroxidase (GSH-Px, 43390), superoxide dismutase (SOD, 43125), catalase (CAT, 43356), creatinine (Cr, 43353) and blood urea nitrogen (BUN, 43352) in the serum and livers of mice were determined using ELISA Kits (Yuanye Bio-Technology Co. Ltd, Shanghai, China) according to the manufacturer's instructions.

xanthine oxidase (XO) = experiment: XO levels in serum and liver of hyperuricemic mice; format: in vivo, Balb/C mice; settings: AL 20 mg/kg; P<0.05
Description: as §1
(§3) The serum UA concentrations and XO levels in the serum and liver were determined with a standard diagnostic kit (MAK077, MAK078 Sigma, USA) according to the manufacturer's instructions.

[2] = tested on: creatinine (Cr) and blood urea nitrogen (BUN); experiment: Cr and urea nitrogen in serum and liver of hyperuricemic mice (renal function); format: in vivo, Balb/C mice; settings: AL
Description: as §1, §2

hyperuricemic mice = experiment: Serum UA in OXO- and yeast extract-induced hyperuricemic mice; format: in vivo, Balb/C mice; settings: 20 mg/kg AL oral, P<0.01
Description: (§4) Male Balb/C mice (n=50, 8 weeks: 18-22 g), purchased from Yisi Experimental Animal Technology Company Ltd, Jilin, China (SCXK (Ji)-2016-0003). These mice were housed in plastic cages and maintained on a 12-h light/12-h dark cycle (lights on 7:00-19:00 h) under standard laboratory conditions of 55% relative humidity and 23±1° C. They were given standard feed and tap water ad libitum. All experimental procedures were approved by the Animal Ethics Committee of Jilin University (Reference NO. 201605).
Due to the presence of uricase in mice, a hyperuricemic mouse model was established by using uricase inhibitor and large amounts of purine. Mice were randomly divided into five groups (n=10), including the control group (NC), model group (MC), 20 mg/kg of AL (Shimao Tianjie Pharmaceutical Co. Ltd, Jiangsu, China) group, 10 μg BHA group (10BHA) and 50 μg BHA group (50BHA). Oral administration of AL and intraperitoneal injection of BHA were administered according to the required dose, and all mice were gavage fed 20 g/kg yeast extract powder 12 h prior to the administration of AL and BHA except for NC mice for 8 days. […]
as §3

[3] = tested on: inflammatory cell infiltration in the synovium; experiment: Histopathological assessment of ankle joint synovium (H&E) in MSU crystal-injected rats; format: in vivo, Wistar rats; settings: COL 0.3 mg/kg; MSU crystal-injected rats; H&E
Description: In one study, a histopathological assessment was conducted of synovium in ankle joints of rats after H&E staining. The right ankles of […] were excised and fixed in 4% paraformaldehyde, and subsequently decalcified using 10% ethylenediaminetetraacetic acid. They were then dehydrated via processing in alcohol/xylene mixtures with different proportions and concentrations. The histological sections were stained with hematoxylin and eosin. The histopathological changes of the joint synovium were assessed for the degree of inflammatory cell infiltrate, by an experienced histopathologist. Microscopy at magnifications of 40×, 100×, 200× and 400× were investigated for typical areas for each of the five groups.
The right ankles of rats were collected and fixed in 4% paraformaldehyde, and subsequently decalcified using 10% ethylenediaminetetraacetic acid. They were then dehydrated by processing in alcohol/xylene mixtures with different proportions and concentrations. The histological sections were later stained with hematoxylin and eosin for observation under an optical microscope (200×). The histopathological changes were analyzed with regard to deformaties of the joint synovium and infiltration by inflammatory cells into the ankle.

inflammation factors = experiment: Serum inflammation factors by ELISA in rats with MSU-induced acute gout; format: in vivo, Wistar rats
Description: (§5) An experimental model of MSU-induced gouty arthritis was used in order to evaluate the anti-inflammatory activities of BHA. Rats were randomly divided into five groups (n=10), include a control group (NC), a model group (MC), a 0.3 mg/kg colchicine group (COL), a 10 μg BHA group (10BHA) and a 50 μg BHA group (50BHA). MSU crystals were suspended in 0.9% sterile saline (30 mg/mL) prior to use. The colchicine group rats were orally administrated colchicine (0.3 mg/kg) for 8 days, and all rats except for the control group were injected with 3 mg of MSU (Sigma, USA) at the 6th day into the right ankle synovial space 1 h after gavage feeding. Meanwhile a turbid sample of MSU mixed with 100 μg of BHA or 500 μg of BHA per mL of solution for 10BHA rats or 50BHA rats. At the 8th day, 1 h after the administration of the final agents, blood was sampled from the caudal veins of the rats and the right ankle joints of the rats were collected and fixed in 4% paraformaldehyde. Serum was separated and stored at −80° C. prior to analysis (FIG. 2A, E).
The serum levels of interleukin-1α (IL-1α, 41734), IL-1β (43360), interleukin-6 (IL-6, 41731), interleukin-8 (IL-8, 41716), IL-10 (41736), interleukin-16 (IL-16, 41628), C—X—C motif chemokine 10 (CXCL10, 41570), monocyte chemoattractant protein 1 (MCP-1, 41640), macrophage inflammatory protein 1α (MIP-1α, 41645), interferon gamma (IFN-γ, 41739), TNF-α (41721), tumor necrosis factor-β (TNF-β, 41673), nuclear factor κ-light-chain-enhancer of activated B cells (NF-κB, 43358), 6-keto-prostaglandin F-1α (6-Keto-PGF1α, 41809) and prostaglandin E2 (PGE2, 41609) in rats were determined by the ELISA method using related Elisa Kits (Yuanye Bio-Technology Co. Ltd, Shanghai, China) according to the manufacturer's instructions.

[4] = tested on: rats with MSU-induced gouty arthritis; experiment: Dose screening on MSU crystals-induced acute gout in rats: ankle swelling ratio; format: in vivo, Wistar rats; settings: n=6, COL 0.3 mg/kg, at 4 h only, P<0.05
Description: as §4, with “48 male Wistar rats (8” for “Male Balb/C mice (n=50, 8”, “180-200” for “18-22”, “(Ji)-2016-0003),” for “(Ji)-2016-0003). These mice”, “23° C.±1°” for “23±1°”, “chow” for “feed”
An experimental model of MSU-induced gouty arthritis was used in order to evaluate the anti-inflammatory activities of BHA similar as previous studies with some modifications. Rats were randomly divided into eight groups (n=6), including control group (NC), model group (MC), 0.3 mg/kg colchicine group (COL), 5 μg BHA group (5BHA), 10 μg BHA group (10BHA), 25 μg BHA group (25BHA), 50 μg BHA group (50BHA), 100 μg BHA group (100BHA). MSU crystals were suspended in 0.9% sterile saline (30 mg/mL) prior to use. Rats in the colchicine group were orally administered colchicine (0.3 mg/kg) for 8 days. At day 6, MSU solution (100 μL of 30 mg/mL) was intra-articular injected at the right ankles of all rats except the NC group m which were injected with saline solution. 5BHA, 10BHA, 25BHA, 50BHA and 100BHA groups received intra-articular injections of 5, 10, 25, 50, or 100 μg BHA along with MSU solution (100 μL of 30 mg/mL MSU solution contains 5, 10, 25, 50 or 100 μg BHA) were administered according to the stated BHA doses.
The right ankle circumference of all rats at 0, 4, 12, 24 and 48 h after MSU injection was measured. The swelling ratio (%) was used for evaluating the gouty arthritis and calculated according to the change of the circumference following the formula: Swelling ratio (%)=(Ct−C0)/C0. Wherein, Ct represented the circumference at t hour and C0 represented the circumference at 0 hour.

[5] = tested on: rats with MSU-induced acute gout; experiment: MSU crystal-induced acute gout in rats: ankle swelling ratio; format: in vivo, Wistar rats; settings: COL 0.3 mg/kg; at 12 h; P<0.05
Description: Male Wistar rats (n=50, 8 weeks: 160-200 g) were purchased from Liaoning Changsheng Biotechnology Company Ltd, Jilin, China (SCXK (Liao)-2015-0001). These rats were housed in plastic cages and maintained on a 12-h light/12-h dark cycle (lights on 7:00-19:00 h) under standard laboratory conditions of 55% relative humidity and at 23° C.±1° C. They were given standard chow (Liaoning Changsheng Biotechnology Company Ltd, Jilin, China) and tap water ad libitum. All experimental procedures were approved by the Animal Ethics Committee of Jilin University (Reference NO. 201605).
as §5
The right ankle circumferences of all rats at 0, 4, 12, 24 and 48 h after MSU injection were measured. The swelling ratio (%) was used to evaluate the gouty arthritis and calculated according to the change of the circumference via the formula: Swelling ratio (%)=(Ct−C0)/C0, wherein, Ct represented the circumference at time t (in h) and C0 represented the circumference at 0 h.

[6] = hyperuricemia mice, AL 20 mg/kg oral, mean ± S.D., n=10
[7] = serum, MSU-induced acute gout rats, COL 0.3 mg/kg oral 8 days, mean ± S.D., n=10

SMILES: Oc1ncnc2[nH]ncc12 [AL, allopurinol, reference compound]
- suppression of MDA level in the liver ([1]; AL, hyperuricemic mice, P<0.05): 13.47%
- suppression of MDA level in the serum ([1]; AL, hyperuricemic mice, P<0.05): 6.66%
- suppression of ROS level in the liver ([1]; AL, hyperuricemic mice, P<0.05): 17.86%
- suppression of ROS level in the serum ([1]; AL, hyperuricemic mice, P<0.05): 9.48%
- Liver CAT [1, 6]: 12.9 ± 1.3 U/mg
- Liver GSH-PX [1, 6]: 66.1 ± 7.2 U/mg
- Liver MDA [1, 6]: 3.1 ± 0.2 nmol/mg
- Liver ROS [1, 6]: 63.2 ± 6.2 U/mg
- Liver SOD [1, 6]: 48.5 ± 3.4 U/mg
- Serum CAT [1, 6]: 41.6 ± 5.6 U/mL
- Serum GSH-PX [1, 6]: 231.8 ± 7.7 U/mL
- Serum MDA [1, 6]: 10.2 ± 0.5 nmol/mL
- Serum ROS [1, 6]: 240.9 ± 23.9 U/mL
- Serum SOD [1, 6]: 159.2 ± 8 U/mL
- reduction of XO levels in the serum compared to untreated mice (xanthine oxidase (XO)): 23.76%
- lowering of Cr in the liver ([2]; P<0.01): 15.28%
- lowering of Cr in the serum ([2]; hyperuricemic mice, P<0.05): 11.52%
- lowering of urea nitrogen in the liver ([2]; hyperuricemic mice, P<0.05): 25.25%
- suppression of serum UA level (hyperuricemic mice): 46.38%

SMILES: COc1cc2c(c(OC)c1OC)-c1ccc(OC)c(=O)cc1[C@@H](NC(C)=O)CC2 [COL, colchicine, reference compound]
- pathological changes (inflammatory cell infiltration) in synovium [3]: partially prevented the pathological changes
- decrease of serum MCP-1 compared to rats injected with MSU (inflammation factors; COL 0.3 mg/kg, P<0.05): 9.93%
- 6-Keto-PGF1α (inflammation factors; [7]): 266.3 ± 12.7
- IFN-γ (inflammation factors; [7]): 88.2 ± 35 pg/mL
- IL-1α (inflammation factors; [7]): 74.3 ± 12.6 pg/mL
- IL-1β (inflammation factors; [7]): 19.1 ± 1.2 pg/mL
- IL-6 (inflammation factors; [7]): 74.7 ± 7.9 pg/mL
- IL-8 (inflammation factors; [7]): 222.7 ± 11.5 pg/mL
- IL-10 (inflammation factors; [7]): 11.5 ± 0.7 pg/mL
- IL-16 (inflammation factors; [7]): 416.7 ± 16.1 pg/mL
- IP-10 (inflammation factors; [7]): 153.5 ± 20.3 pg/mL
- MCP-1 (inflammation factors; [7]): 311.5 ± 20.8 pg/mL
- MIP-1α (inflammation factors; [7]): 294.6 ± 21.5 pg/mL
- NF-κB (inflammation factors; [7]): 494.6 ± 132. pg/mL
- PGE2 (inflammation factors; [7]): 207.7 ± 10^ pg/mL
- TNF-α (inflammation factors; [7]): 154.8 ± 8.5 pg/mL
- TNF-β (inflammation factors; [7]): 124.8 ± 10.5 pg/mL
- swelling of the ankle compared to MSU treated group [4]: significantly suppressed swelling of the ankle
- ankle swelling compared to the MSU treated group [5]: suppressed ankle swelling
